According to ChEMBL document CHEMBL3046456, “Anti-angiogenic/proliferative behavior of a 4-aryl-4H-chromene on blood vessels endothelial cells: A possible evidence on dual anti-tumor activity” (Med Chem Res, 2011):
One block for each compound: values may come before it. Activity calls are given as the source filed them. The rule behind the calls is not given here.

What was measured:
HUVEC [1] = test: Antiproliferative activity against Homo sapiens (human) HUVEC cells at 3.11 to 124 uM after 3 days by cell counting analysis; assay type: functional, cell-based
HUVEC [2] = test: Cytotoxicity against Homo sapiens (human) HUVEC cells after 48 hr by LDH assay; assay type: cell-based
HUVEC [3] = test: Cytotoxicity against Homo sapiens (human) HUVEC cells after 48 hr by trypan blue assay; assay type: cell-based
HUVEC [4] = test: Antiangiogenic activity against Homo sapiens (human) HUVEC cells assessed as inhibition of capillary tube formation after 3 days by microscopic analysis; assay type: functional, cell-based
HUVEC [5] = test: Antiproliferative activity against Homo sapiens (human) HUVEC cells at 1 ug/ml after 3 days by cell counting analysis; assay type: functional, cell-based
HUVEC [6] = test: Antiproliferative activity against Homo sapiens (human) HUVEC cells at <10 ug/ml after 3 days by cell counting analysis; assay type: functional, cell-based
HUVEC [7] = test: Antiproliferative activity against Homo sapiens (human) HUVEC cells after 3 days by cell counting analysis; assay type: functional, cell-based
HUVEC [8] = test: Cytotoxicity against Homo sapiens (human) HUVEC cells up to 40 ug/ml after 48 hr by LDH assay; assay type: cell-based
HUVEC [9] = test: Cytotoxicity against Homo sapiens (human) HUVEC cells up to 40 ug/ml after 48 hr by trypan blue assay; assay type: cell-based
[10] = biological target: 72 kDa type IV collagenase (Homo sapiens) (UniProt P08253); test: Inhibition of MMP2 (unknown origin) at 37.32 uM after 16 hr by gelatin zymographic analysis
[11] = biological target: Matrix metalloproteinase-9 (Homo sapiens) (UniProt P14780); test: Inhibition of MMP9 (unknown origin) at 24.88 uM after 16 hr by gelatin zymographic analysis
[12] = biological target: Matrix metalloproteinase-9 (Homo sapiens) (UniProt P14780); test: Inhibition of MMP9 (unknown origin) after 16 hr by gelatin zymographic analysis
HUVEC [13] = test: Antiangiogenic activity against Homo sapiens (human) HUVEC cells assessed as inhibition of capillary tube formation at 1 ug/ml after 3 days by microscopic analysis; assay type: functional, cell-based

Chain of Matrix metalloproteinase-9 (Homo sapiens) (P14780 whole entry): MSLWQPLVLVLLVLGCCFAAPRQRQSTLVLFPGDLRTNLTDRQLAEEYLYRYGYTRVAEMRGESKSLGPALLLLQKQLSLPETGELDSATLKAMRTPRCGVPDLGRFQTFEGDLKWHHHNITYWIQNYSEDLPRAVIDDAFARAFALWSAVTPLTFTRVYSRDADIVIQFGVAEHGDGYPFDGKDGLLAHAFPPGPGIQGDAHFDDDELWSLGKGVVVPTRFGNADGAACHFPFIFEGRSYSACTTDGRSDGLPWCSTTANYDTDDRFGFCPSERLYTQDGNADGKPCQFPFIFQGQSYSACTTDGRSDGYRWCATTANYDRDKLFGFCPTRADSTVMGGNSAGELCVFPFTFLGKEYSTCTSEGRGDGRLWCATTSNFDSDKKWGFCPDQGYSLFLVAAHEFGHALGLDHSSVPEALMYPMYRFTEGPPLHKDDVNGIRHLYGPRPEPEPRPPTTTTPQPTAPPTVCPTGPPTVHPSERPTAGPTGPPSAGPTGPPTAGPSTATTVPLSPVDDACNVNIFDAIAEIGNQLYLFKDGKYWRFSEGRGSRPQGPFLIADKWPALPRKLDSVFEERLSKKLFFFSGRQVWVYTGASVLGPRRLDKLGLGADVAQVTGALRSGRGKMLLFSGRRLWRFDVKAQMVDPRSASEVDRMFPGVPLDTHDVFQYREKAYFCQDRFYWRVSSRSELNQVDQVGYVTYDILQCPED
Chain of 72 kDa type IV collagenase (Homo sapiens) (P08253 110-660 limits assumed): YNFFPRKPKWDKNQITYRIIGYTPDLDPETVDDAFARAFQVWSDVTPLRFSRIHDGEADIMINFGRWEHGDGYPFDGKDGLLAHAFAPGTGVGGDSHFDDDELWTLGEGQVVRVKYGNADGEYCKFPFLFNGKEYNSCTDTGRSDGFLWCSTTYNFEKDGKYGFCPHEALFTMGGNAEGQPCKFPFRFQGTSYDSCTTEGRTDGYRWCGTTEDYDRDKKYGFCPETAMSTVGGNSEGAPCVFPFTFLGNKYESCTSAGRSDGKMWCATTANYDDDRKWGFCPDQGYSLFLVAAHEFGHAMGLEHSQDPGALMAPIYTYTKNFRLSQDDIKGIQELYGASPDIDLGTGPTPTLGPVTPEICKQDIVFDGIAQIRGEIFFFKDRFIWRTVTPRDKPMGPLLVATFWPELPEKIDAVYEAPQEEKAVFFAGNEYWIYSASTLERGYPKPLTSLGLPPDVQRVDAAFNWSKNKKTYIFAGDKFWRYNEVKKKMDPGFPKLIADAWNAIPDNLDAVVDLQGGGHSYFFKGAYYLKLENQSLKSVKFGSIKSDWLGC

SMILES: COc1ccc2c(c1)OC/C(=C\c1ccc(Cl)cc1)C2=O
- Activity (HUVEC [1]): inactive
- Activity (HUVEC [2]): Dose-dependent effect
- Activity (HUVEC [3]): Dose-dependent effect

- inhibition [10]: Active
- inhibition [11]: Active
- inhibition [12]: Dose-dependent effect
SMILES: COc1ccccc1C1C(C#N)=C(N)Oc2cc(N(C)C)ccc21 (centres undefined)
- inhibition (HUVEC [4]): Dose-dependent effect
- Activity (HUVEC [5]): Active
- Activity (HUVEC [6]): Active
- Activity (HUVEC [7]): Dose-dependent effect
- Activity (HUVEC [8]): Non-toxic
- Activity (HUVEC [9]): Non-toxic
- inhibition (HUVEC [13]): Active

SMILES: COc1ccc(/C=C2\COc3cc(OC)ccc3C2=O)cc1
- Activity (HUVEC [1]): inactive
- Activity (HUVEC [2]): Dose-dependent effect
- Activity (HUVEC [3]): Dose-dependent effect

SMILES: COc1ccc2c(c1)OC/C(=C\c1ccc(O)c(O)c1)C2=O
- Activity (HUVEC [1]): inactive
- Activity (HUVEC [2]): Dose-dependent effect
- Activity (HUVEC [3]): Dose-dependent effect

SMILES: COc1ccc2c(c1)OC/C(=C\c1cc(OC)c(O)c(OC)c1)C2=O
- Activity (HUVEC [1]): inactive
- Activity (HUVEC [2]): Dose-dependent effect
- Activity (HUVEC [3]): Dose-dependent effect

SMILES: CN(C)c1ccc2c(c1)OC(N)=C(C#N)C2c1cccc([N+](=O)[O-])c1 (centres undefined)
- Activity (HUVEC [1]): inactive
- Activity (HUVEC [2]): Dose-dependent effect
- Activity (HUVEC [3]): Dose-dependent effect

SMILES: COc1ccc2c(c1)OC/C(=C\c1ccc(F)cc1)C2=O
- Activity (HUVEC [1]): inactive
- Activity (HUVEC [2]): Dose-dependent effect
- Activity (HUVEC [3]): Dose-dependent effect

SMILES: CN(C)c1ccc2c(c1)OC(N)=C(C#N)C2c1cccc(C(F)(F)F)c1 (centres undefined)
- Activity (HUVEC [1]): inactive
- Activity (HUVEC [2]): Dose-dependent effect
- Activity (HUVEC [3]): Dose-dependent effect

SMILES: COc1ccc2c(c1)OC/C(=C\c1ccc(O)cc1)C2=O
- Activity (HUVEC [1]): inactive
- Activity (HUVEC [2]): Dose-dependent effect
- Activity (HUVEC [3]): Dose-dependent effect

SMILES: COc1ccc2c(c1)OC/C(=C\c1ccc(C(F)(F)F)cc1)C2=O
- Activity (HUVEC [1]): inactive
- Activity (HUVEC [2]): Dose-dependent effect
- Activity (HUVEC [3]): Dose-dependent effect

SMILES: CCCOc1ccc2c(c1)OC/C(=C\c1ccc(O)c(O)c1)C2=O
- Activity (HUVEC [1]): inactive
- Activity (HUVEC [2]): Dose-dependent effect
- Activity (HUVEC [3]): Dose-dependent effect

SMILES: COc1ccc2c(c1)OC/C(=C\c1ccc(OC)c(OC)c1)C2=O
- Activity (HUVEC [1]): inactive
- Activity (HUVEC [2]): Dose-dependent effect
- Activity (HUVEC [3]): Dose-dependent effect

SMILES: COc1ccc2c(c1)OC/C(=C\c1ccc(Cl)cc1Cl)C2=O
- Activity (HUVEC [1]): inactive
- Activity (HUVEC [2]): Dose-dependent effect
- Activity (HUVEC [3]): Dose-dependent effect

SMILES: COc1ccc2c(c1)OC/C(=C\c1ccccc1OC)C2=O
- Activity (HUVEC [1]): inactive
- Activity (HUVEC [2]): Dose-dependent effect
- Activity (HUVEC [3]): Dose-dependent effect
